Experimental findings from US10800792B2, “Inhibitors of Bruton's tyrosine kinase and method of their use” (JANSSEN PHARMACEUTICA NV, priority 2015, dated 2020) are described below.

The target of this assay is unphosphorylated-BTK kinase domain (UP-BTK), GST-tagged human BTK (389-659aa) (Homo sapiens (Human), UniProt Q06187). Description: BTK kinase Lanthascreen binding assay. To be noted: unphosphorylated-BTK kinase domain, 50 nM Tracer 236, 60 minutes; pIC50 = negative log of the IC50 in molar. The gist of the method:
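Values are pIC50, i.e. negative log of IC50 in molar, derived from concentration–response fitting. Each compound competes with a fluorescently labelled tracer for the unphosphorylated kinase domain.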
A general note: In TR-FRET formats the signal depends on donor and acceptor labels being close together.

Molecules are shown by their SMILES.

Chain of unphosphorylated-BTK kinase domain (UP-BTK), GST-tagged human BTK (389-659aa) (Q06187 389-659): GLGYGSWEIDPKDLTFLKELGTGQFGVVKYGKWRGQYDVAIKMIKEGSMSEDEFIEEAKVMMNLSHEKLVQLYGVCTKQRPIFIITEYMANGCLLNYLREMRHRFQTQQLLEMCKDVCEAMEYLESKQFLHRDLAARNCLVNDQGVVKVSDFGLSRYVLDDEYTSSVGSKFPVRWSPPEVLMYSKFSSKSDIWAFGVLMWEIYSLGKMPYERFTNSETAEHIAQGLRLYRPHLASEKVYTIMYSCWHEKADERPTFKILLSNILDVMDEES

Take `O=C(N[C@@H]1CCCNC1)c1sc2nccc3c2c1NC(=O)N3c1ccccc1` [Example 348, (R)-4-Oxo-5-phenyl-N-(piperidin-3-yl)-4,5-dihydro-3H-1-thia-3,5,8-triazaacenaphthylene-2-carboxamide]: the “BTK_I_binding pIC50” value was less than 5. Next, `CN1CCC[C@@H](NC(=O)c2sc3nccc4c3c2NC(=O)N4c2ccc(Oc3ccccc3)cc2C(F)(F)F)C1` [Example 349, (R)—N-(1-Methylpiperidin-3-yl)-4-oxo-5-(4-phenoxy-2-(trifluoromethyl)phenyl)-4,5-dihydro-3H-1-thia-3,5,8-triazaacenaphthylene-2-carboxamide]: less than 5; `Cc1cc(Oc2ccccc2)nnc1N1C(=O)Nc2c(C(=O)N[C@@H]3CCCN(C)C3)sc3nccc1c23` [Example 350, (R)-5-(4-Methyl-6-phenoxypyridazin-3-yl)-N-(1-methylpiperidin-3-yl)-4-oxo-4,5-dihydro-3H-1-thia-3,5,8-triazaacenaphthylene-2-carboxamide]: less than 5; `C=CC(=O)N1CC[C@@H](NC(=O)c2sc3nccc4c3c2NC(=O)N4c2nnc(Oc3ccccc3)cc2C)C1` [Example 351, (R)—N-(1-Acryloylpyrrolidin-3-yl)-5-(4-methyl-6-phenoxypyridazin-3-yl)-4-oxo-4,5-dihydro-3H-1-thia-3,5,8-triazaacenaphthylene-2-carboxamide]: less than 5.

Turning to `Cc1ccccc1N1C(=O)Nc2c(C(=O)N[C@@H]3CCCN(C)C3)sc3nccc1c23` [Example 352, (R)—N-(1-Methylpiperidin-3-yl)-4-oxo-5-(o-tolyl)-4,5-dihydro-3H-1-thia-3,5,8-triazaacenaphthylene-2-carboxamide], the “BTK_I_binding pIC50” value was less than 5. Consider `Cc1cc(Oc2ccncc2)ccc1N1C(=O)Nc2c(C(=O)N[C@@H]3CCCN(C)C3)sc3nccc1c23` [Example 354, (R)-5-(2-Methyl-4-(pyridin-4-yloxy)phenyl)-N-(1-methylpiperidin-3-yl)-4-oxo-4,5-dihydro-3H-1-thia-3,5,8-triazaacenaphthylene-2-carboxamide], for which the “BTK_I_binding pIC50” value is on record as less than 5. With `CN(C)c1cccc(N2C(=O)Nc3c(C(=O)N[C@@H]4CCCNC4)sc4nccc2c34)c1` [Example 356, (R)-5-(3-(Dimethylamino)phenyl)-4-oxo-N-(piperidin-3-yl)-4,5-dihydro-3H-1-thia-3,5,8-triazaacenaphthylene-2-carboxamide], the “BTK_I_binding pIC50” value is less than 5. In the case of `C=CC(=O)N1CCC[C@@H](NC(=O)c2sc3nccc4c3c2NC(=O)N4C(C)C)C1` [Example 357, (R)—N-(1-Acryloylpiperidin-3-yl)-5-isopropyl-4-oxo-4,5-dihydro-3H-1-thia-3,5,8-triazaacenaphthylene-2-carboxamide], the “BTK_I_binding pIC50” value worked out at 5.1.

For `C=CC(=O)N1CCC[C@@H](NC(=O)c2sc3nccc4c3c2NC(=O)N4c2cccnc2C)C1` [Example 358, (R)—N-(1-Acryloylpiperidin-3-yl)-5-(2-methylpyridin-3-yl)-4-oxo-4,5-dihydro-3H-1-thia-3,5,8-triazaacenaphthylene-2-carboxamide], the “BTK_I_binding pIC50” value is listed as 5.2. Consider `Cc1ncccc1N1C(=O)Nc2c(C(=O)N[C@@H]3CCCNC3)sc3nccc1c23` [Example 359, (R)-5-(2-Methylpyridin-3-yl)-4-oxo-N-(piperidin-3-yl)-4,5-dihydro-3H-1-thia-3,5,8-triazaacenaphthylene-2-carboxamide], for which the “BTK_I_binding pIC50” value was less than 5.

With `C=CC(=O)N1CCC[C@@H](NC(=O)c2sc3nccc4c3c2NC(=O)N4c2ccc(Cl)c(Cl)c2)C1` [Example 360, (R)—N-(1-Acryloylpiperidin-3-yl)-5-(3,4-dichlorophenyl)-4-oxo-4,5-dihydro-3H-1-thia-3,5,8-triazaacenaphthylene-2-carboxamide], the “BTK_I_binding pIC50” value is reported as 6.7. `CC(C)N1C(=O)Nc2c(C(=O)N[C@@H]3CCCNC3)sc3nccc1c23` [Example 361, (R)-5-Isopropyl-4-oxo-N-(piperidin-3-yl)-4,5-dihydro-3H-1-thia-3,5,8-triazaacenaphthylene-2-carboxamide]: the “BTK_I_binding pIC50” value is less than 5.
